Results reported in patent US10821160B2, “L-asparaginase variants and fusion proteins with reduced L-glutaminase activity and enhanced stability” (priority 2016, dated 2020).
“And” between values parts separate entries of the source, which are not always exact repeats. Identical values can stand only once.

Experiments:
[1] = tested on: Erwinia chrysanthemi L-asparaginase (ErA) variants ErA-E63Q, ErA-DM2 (A31I-E63Q) and ErA-DM1 (E63Q-S254N); assay: L-asparaginase activity of the mutants as a group vs ErA-WT; assay type: biochemical; conditions: Asn
Procedure: (§1) L-asparaginase activity was determined using a continuous spectroscopic enzyme-coupled assay as previously described (Schalk, et al. (2014) J. Biol. Chem. 289:33175-33186). In brief, the assay measures the production of L-aspartate through the 1:1 oxidation of reduced NADH. The conversion of NADH to NAD^+ was measured spectrophotometrically as a decrease in absorbance at 340 nm at 37° C. All measurements were taken in triplicate. Rates were fit to the Michaelis-Menten equation using SIGMAPLOT software (Systat Software Inc).
(§2) Using colorimetric enzyme-coupled assays, L-asparaginase and L-glutaminase activity of the enzymes was determined. […] Seventeen of the 18 mutants had reduced L-glutaminase activity (Table 7). However, for most of the mutants, this decrease was concomitant with a decline in the L-asparaginase activity. Using the criteria of (i) ≥60% retained L-asparaginase activity (relative to Erw-WT) and (ii) ≤5% L-glutaminase versus and L-asparaginase activity, mutants ErA-E63Q, ErA-S254P, ErA-A31I+E63Q and ErA-S254N+E63Q were selected for further study.

[2] = molecular target: T1, Escherichia coli L-asparaginase, wild type (EcA-WT), SEQ ID NO:9 (Escherichia coli, UniProt P00805); assay: L-asparaginase activity, continuous spectroscopic enzyme-coupled assay; assay type: biochemical; conditions: 37° C
T1 sequence (P00805 with tags, fused parts or gaps): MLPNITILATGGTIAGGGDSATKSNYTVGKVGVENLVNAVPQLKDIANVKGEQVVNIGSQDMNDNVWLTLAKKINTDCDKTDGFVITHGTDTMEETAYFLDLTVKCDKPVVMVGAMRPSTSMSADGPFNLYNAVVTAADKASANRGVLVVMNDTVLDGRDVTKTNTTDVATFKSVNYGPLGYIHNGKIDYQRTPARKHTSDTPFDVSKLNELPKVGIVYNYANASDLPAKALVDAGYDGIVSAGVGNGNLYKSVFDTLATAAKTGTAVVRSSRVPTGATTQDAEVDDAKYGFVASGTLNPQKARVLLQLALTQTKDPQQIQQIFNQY
Procedure: as §1
The parameters that define the asparagine-depleting power of such enzyme drugs are of significance. […] Enzymologists often combine these two parameters into a single value (kcat/Km) that is thought to represent the efficiency of the enzyme. […] Therefore, the ErA enzyme was selected for developing a variant with low L-glutaminase activity.

[3] = molecular target: T2, Erwinia chrysanthemi L-asparaginase (ErA) variant S254P (ErA-S254P) (Dickeya chrysanthemi, UniProt P06608, S275P); assay type: biochemical; conditions: 37° C
T2 construct: lacking the first 21-amino acid residue signal peptide; His6-SUMO (yeast Smt3p) (N, cleaved yes); made in house; host or cells: E. coli BL21(DE3) C41
Procedure: as §1, §2

[4] = molecular target: T3, Erwinia chrysanthemi L-asparaginase (ErA) variant A31I-E63Q (ErA-DM2), SEQ ID NO:4 (Dickeya chrysanthemi, UniProt P06608, A52I/E84Q); assay type: biochemical; conditions: 37° C
T3 construct: lacking the first 21-amino acid residue signal peptide; His6-SUMO (yeast Smt3p) (N, cleaved yes); made in house; host or cells: E. coli BL21(DE3) C41
Procedure: as §1, §2

[5] = molecular target: Erwinia chrysanthemi L-asparaginase (ErA) variant A31I-E63Q-S254Q (ErA-TM2), SEQ ID NO:6 (Dickeya chrysanthemi, UniProt P06608, A52I/E84Q/S275Q); assay type: biochemical; set-up: lacking the first 21-amino acid residue signal peptide; His6-SUMO (yeast Smt3p) (N, cleaved yes); made in house; host or cells: E. coli BL21(DE3) C41
Procedure: as §1
(§3) Using colorimetric enzyme-coupled assays, L-asparaginase and L-glutaminase activity of the enzymes was determined.

[6] = molecular target: Erwinia chrysanthemi L-asparaginase (ErA) variant E63Q (ErA-E63Q), SEQ ID NO:2 (Dickeya chrysanthemi, UniProt P06608, E84Q); conditions: 37° C
Procedure: as §1
(§4) The parameters that define the asparagine-depleting power of such enzyme drugs are of significance. […] Enzymologists often combine these two parameters into a single value (kcat/Km) that is thought to represent the efficiency of the enzyme.
as §3

[7] = molecular target: T4, Erwinia chrysanthemi L-asparaginase (ErA) variant E63Q-S254Q (ErA-DM3), SEQ ID NO:5 (Dickeya chrysanthemi, UniProt P06608, E84Q/S275Q); assay type: biochemical; conditions: 37° C
T4 construct: lacking the first 21-amino acid residue signal peptide; His6-SUMO (yeast Smt3p) (N, cleaved yes); made in house; host or cells: E. coli BL21(DE3) C41
Procedure: as §1, §4, §3

[8] = molecular target: T5, Erwinia chrysanthemi L-asparaginase (ErA) variant E63Q-S254N (ErA-DM1), SEQ ID NO:3 (Dickeya chrysanthemi, UniProt P06608, E84Q/S275N); assay type: biochemical
T5 construct: lacking the first 21-amino acid residue signal peptide; His6-SUMO (yeast Smt3p) (N, cleaved yes); made in house; host or cells: E. coli BL21(DE3) C41

[9] = molecular target: T6, Erwinia chrysanthemi L-asparaginase, wild type (ErA-WT), SEQ ID NO:1 (Dickeya chrysanthemi, UniProt P06608); assay: L-asparaginase activity, continuous spectroscopic enzyme-coupled assay; assay type: biochemical; conditions: 37° C
T6 construct: lacking the first 21-amino acid residue signal peptide; His6-SUMO (yeast Smt3p) (N, cleaved yes); made in house; host or cells: E. coli BL21(DE3) C41
Procedure: as §1, with “In” for “L-asparaginase activity was determined using a continuous spectroscopic enzyme-coupled assay as previously described (Schalk, et al. (2014) J. Biol. Chem. 289:33175-33186). In”
as §4, §3

[10] = molecular target: T7, 10K PEGylated Erwinia chrysanthemi L-asparaginase (ErA) variant A31I-E63Q-S254Q-D84C (10K PEGylated-ErA-TM2-D84C) (Dickeya chrysanthemi, UniProt P06608, A52I/D105C/E84Q/S275Q); assay: L-asparaginase activity, comparison with ErA-TM2; assay type: biochemical
T7 construct: lacking the first 21-amino acid residue signal peptide; made in house
Procedure: as §1
(§5) The resulting […] protein was expressed, purified and PEGylated with mPEG-10K.

[11] = molecular target: T8, Erwinia chrysanthemi L-asparaginase (ErA) variant A31I-E63Q-S254Q-D84C (ErA-TM2-D84C) (Dickeya chrysanthemi, UniProt P06608, A52I/D105C/E84Q/S275Q); assay: L-asparaginase activity, comparison with ErA-TM2; assay type: biochemical
T8 construct: lacking the first 21-amino acid residue signal peptide; made in house
Procedure: as §1, §5

[12] = molecular target: T9, Erwinia chrysanthemi L-asparaginase (ErA) variant A31I-E63Q-S254N (ErA-TM1), SEQ ID NO:7 (Dickeya chrysanthemi, UniProt P06608, A52I/E84Q/S275N); assay type: biochemical; conditions: 37° C
T9 construct: lacking the first 21-amino acid residue signal peptide; His6-SUMO (yeast Smt3p) (N, cleaved yes); made in house; host or cells: E. coli BL21(DE3) C41

SMILES: NC(=O)C[C@H](N)C(=O)O [Asn, L-asparagine]
- near wild-type kcat (range, of ErA-WT) [1]: 60-90%
- kobs @20 μM ([2]; 20 μM Asn): 28.3 s⁻¹
- kobs @50 μM ([2]; 50 μM Asn): 41.3 s⁻¹
- kobs @20 μM ([3]; 20 μM Asn): 4.5 s⁻¹
- kobs @50 μM ([3]; 50 μM Asn): 10.5 s⁻¹
- Km ([3]; Asn): 1150 ± 25.5 µM
- kcat ([3]; Asn): 250.0 ± 2.8 s⁻¹
- kobs @20 μM ([4]; 20 μM Asn): 38.8 s⁻¹
- kobs @50 μM ([4]; 50 μM Asn): 69.7 s⁻¹
- Km ([4]; Asn): 36.9 ± 2.2 µM
- kcat ([4]; Asn): 123.0 ± 1.8 s⁻¹
- kobs @20 μM ([5]; 20 μM Asn, 37° C): 40.8 s⁻¹
- kobs @50 μM ([5]; 50 μM Asn, 37° C): 89.1 s⁻¹
- kobs at 2 mM Asn ([5]; 2 mM Asn): 178.8 s⁻¹
- Km ([5]; Asn, 37° C): 95 ± 3.5 µM
- kcat ([5]; Asn, 37° C): 261.2 ± 2.8 s⁻¹
- kobs @20 μM ([6]; 20 μM Asn): 46.3 s⁻¹
- kobs @50 μM ([6]; 50 μM Asn): 92.2 s⁻¹
- Km ([6]; Asn): 48.1 µM and 50.7 µM
- kobs @20 μM ([7]; 20 μM Asn): 14.2 s⁻¹
- kobs @50 μM ([7]; 50 μM Asn): 36.3 s⁻¹ and 30.8 s⁻¹
- Km ([7]; Asn): 179 ± 5.6 µM
- kcat ([7]; Asn): 147.3 ± 1.0 s⁻¹
- kobs @20 μM ([8]; 20 μM Asn, 37° C): 18.9 s⁻¹
- kobs @50 μM ([8]; 50 μM Asn, 37° C): 36.3 s⁻¹
- kcat ([8]; Asn, 37° C): 169.8 ± 1.5 s⁻¹
- increase in Asn Km ([8]; Asn, relative to ErA-WT): 4 fold
- kobs @20 μM ([9]; 20 μM Asn): 50.7 s⁻¹
- kobs @50 μM ([9]; 50 μM Asn): 105.3 s⁻¹
- kobs at 2 mM Asn [10]: 163.4 s⁻¹
- kobs at 2 mM Asn [11]: 172.8 s⁻¹
- kobs @20 μM ([12]; 20 μM Asn): 16.4 s⁻¹
- kobs @50 μM ([12]; 50 μM Asn): 29.2 s⁻¹
- kcat ([12]; Asn): 109.7 ± 0.8 s⁻¹
